Converted amounts (≈) assume the structure as drawn.

One data set deals with T1, Poly [ADP-ribose] polymerase tankyrase-2 (Homo sapiens, UniProt Q9H2K2).
T1 sequence (Q9H2K2 whole entry): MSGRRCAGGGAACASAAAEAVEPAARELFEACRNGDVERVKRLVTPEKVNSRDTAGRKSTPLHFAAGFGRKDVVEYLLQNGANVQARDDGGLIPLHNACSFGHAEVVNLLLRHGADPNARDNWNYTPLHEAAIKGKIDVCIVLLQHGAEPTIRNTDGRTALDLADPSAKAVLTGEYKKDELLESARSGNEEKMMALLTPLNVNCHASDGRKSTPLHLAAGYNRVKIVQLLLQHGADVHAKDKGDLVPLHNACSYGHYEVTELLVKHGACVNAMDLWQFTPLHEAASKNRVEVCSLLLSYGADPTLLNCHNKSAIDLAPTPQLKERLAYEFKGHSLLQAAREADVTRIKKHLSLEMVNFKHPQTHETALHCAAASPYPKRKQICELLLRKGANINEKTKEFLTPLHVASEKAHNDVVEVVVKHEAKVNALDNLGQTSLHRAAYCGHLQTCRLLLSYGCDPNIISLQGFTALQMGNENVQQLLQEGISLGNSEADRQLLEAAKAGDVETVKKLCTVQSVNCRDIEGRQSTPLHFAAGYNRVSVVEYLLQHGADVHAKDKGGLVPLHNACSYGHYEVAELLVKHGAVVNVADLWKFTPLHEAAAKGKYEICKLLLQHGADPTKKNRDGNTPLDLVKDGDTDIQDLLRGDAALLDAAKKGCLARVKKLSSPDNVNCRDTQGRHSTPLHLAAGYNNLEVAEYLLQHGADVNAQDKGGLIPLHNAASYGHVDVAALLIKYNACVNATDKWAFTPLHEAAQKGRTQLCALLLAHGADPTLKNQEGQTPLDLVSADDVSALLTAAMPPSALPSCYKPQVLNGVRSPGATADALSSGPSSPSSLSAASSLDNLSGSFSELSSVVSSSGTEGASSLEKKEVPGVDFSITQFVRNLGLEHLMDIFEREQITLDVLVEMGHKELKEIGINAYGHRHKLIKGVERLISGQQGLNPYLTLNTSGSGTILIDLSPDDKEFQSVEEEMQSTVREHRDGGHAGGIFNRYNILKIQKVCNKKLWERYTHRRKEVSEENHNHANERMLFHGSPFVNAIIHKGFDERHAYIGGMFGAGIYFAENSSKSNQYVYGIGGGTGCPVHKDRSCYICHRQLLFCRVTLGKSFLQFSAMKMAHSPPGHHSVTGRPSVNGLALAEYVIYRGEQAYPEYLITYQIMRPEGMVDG
Description: Inhibition of recombinant human N-terminal TEV cleavage site-fused/FLAG-poly his-tagged TNKS2 ARC5-SAM-PARP domain (613 to 1166 residues) expressed in Escherichia coli assessed as reduction in auto-PARylation preincubated for 10 mins followed by biotinylated-NAD+ addition and measured after 45 mins by ELISA.
Conditions: not given
As to `Cc1cccc2c(=O)[nH]c(N3CCC4(CC3)CN(CCO)c3cc(F)cc(F)c34)nc12`, the half-maximal inhibitory concentration (IC50) turned out to be 8.5 nM.
With `COCCN1C(=O)C2(CCN(c3nc4c(c(=O)[nH]3)CCCN4C)CC2)c2c(F)cc(F)cc21`, the IC50 amounted to 11.7 nM.
Turning to `CN1CCCc2c1nc(N1CCC3(CC1)C(=O)N(C)c1cc(N4CCOCC4)cc(F)c13)[nH]c2=O`, the IC50 was 10.5 nM.

A further data set concerns COLO 320DM. In words: Antiproliferative activity against human COLO320DM cells assessed as inhibition of cell growth measured after 4 days by CellTiter-Glo assay. Type of data set: functional. The conditions noted are these: 96 h.
On to `Cc1cccc2c(=O)[nH]c(N3CCC4(CC3)CN(CCO)c3cc(F)cc(F)c34)nc12`, for which the GI50 was 720 nM.
On to `COCCN1C(=O)C2(CCN(c3nc4c(c(=O)[nH]3)CCCN4C)CC2)c2c(F)cc(F)cc21`, for which the GI50 turned out to be 50 nM.
On the same count and under the same terms, under `CN1CCCc2c1nc(N1CCC3(CC1)C(=O)N(C)c1cc(N4CCOCC4)cc(F)c13)[nH]c2=O` stands 100 nM.

Tested on in a further data set: not listed separately
Description: Stability in mouse liver microsomes assessed as parent compound remaining at 1 uM measured after 60 mins in presence of NADPH by LC-MS/MS analysis. In kind it is ADME, Microsome. The conditions noted are these: read-out: Stability.
With `COCCN1C(=O)C2(CCN(c3nc4c(c(=O)[nH]3)CCCN4C)CC2)c2c(F)cc(F)cc21`, the remaining at 1 h, 1 µM was found to be 0.1%.
As for `CN1CCCc2c1nc(N1CCC3(CC1)C(=O)N(C)c1cc(N4CCOCC4)cc(F)c13)[nH]c2=O`, the remaining at 1 h, 1 µM turned out to be 46.5%.

Tested on in the next data set: not listed separately
Description: Stability in human liver microsomes assessed as parent compound remaining at 1 uM measured after 60 mins in presence of NADPH by LC-MS/MS analysis. In kind it is ADME, Microsome. The conditions noted are these: read-out: Stability.
For `COCCN1C(=O)C2(CCN(c3nc4c(c(=O)[nH]3)CCCN4C)CC2)c2c(F)cc(F)cc21`, the remaining at 1 h, 1 µM is 1.8%.
Regarding `CN1CCCc2c1nc(N1CCC3(CC1)C(=O)N(C)c1cc(N4CCOCC4)cc(F)c13)[nH]c2=O`, the remaining at 1 h, 1 µM is 6.3%.

Another data set deals with MDR1. In words: Efflux ratio of permeability across basolateral to apical side over apical to basolateral side in MDCK2-MDR1 cells. Conditions: dog, MDCK-MDR1. Type of data set: ADME, cell-based, Canis lupus familiaris.
Turning to `COCCN1C(=O)C2(CCN(c3nc4c(c(=O)[nH]3)CCCN4C)CC2)c2c(F)cc(F)cc21`, the efflux ratio amounted to 4.8.
On the same count and under the same terms, under `CN1CCCc2c1nc(N1CCC3(CC1)C(=O)N(C)c1cc(N4CCOCC4)cc(F)c13)[nH]c2=O` stands 7.8.

Tested on in the next data set: not listed separately
In words: Efflux ratio of permeability across basolateral to apical side over apical to basolateral side in MDCK2 cells. Type of data set: ADME, cell-based, Canis lupus familiaris, MDCK-II. Conditions: dog, mdck.
Regarding `COCCN1C(=O)C2(CCN(c3nc4c(c(=O)[nH]3)CCCN4C)CC2)c2c(F)cc(F)cc21`, the efflux ratio worked out at 1.3.
As to `CN1CCCc2c1nc(N1CCC3(CC1)C(=O)N(C)c1cc(N4CCOCC4)cc(F)c13)[nH]c2=O`, the efflux ratio was found to be 1.9.

Tested on in another data set: not listed separately
In words: Net efflux ratio of permeability across basolateral to apical side over apical to basolateral side in MDCK2-MDR1 cells to MDCK2 cells. In kind it is ADME, cell-based, Canis lupus familiaris. Conditions: dog, mdck.
As for `COCCN1C(=O)C2(CCN(c3nc4c(c(=O)[nH]3)CCCN4C)CC2)c2c(F)cc(F)cc21`, the Ratio is recorded as 3.7.
Still for that read-out and setting: under `CN1CCCc2c1nc(N1CCC3(CC1)C(=O)N(C)c1cc(N4CCOCC4)cc(F)c13)[nH]c2=O` stands 4.1.

In the next data set the target is T2, Poly [ADP-ribose] polymerase tankyrase-1 (Homo sapiens, UniProt O95271).
T2 sequence (O95271 whole entry): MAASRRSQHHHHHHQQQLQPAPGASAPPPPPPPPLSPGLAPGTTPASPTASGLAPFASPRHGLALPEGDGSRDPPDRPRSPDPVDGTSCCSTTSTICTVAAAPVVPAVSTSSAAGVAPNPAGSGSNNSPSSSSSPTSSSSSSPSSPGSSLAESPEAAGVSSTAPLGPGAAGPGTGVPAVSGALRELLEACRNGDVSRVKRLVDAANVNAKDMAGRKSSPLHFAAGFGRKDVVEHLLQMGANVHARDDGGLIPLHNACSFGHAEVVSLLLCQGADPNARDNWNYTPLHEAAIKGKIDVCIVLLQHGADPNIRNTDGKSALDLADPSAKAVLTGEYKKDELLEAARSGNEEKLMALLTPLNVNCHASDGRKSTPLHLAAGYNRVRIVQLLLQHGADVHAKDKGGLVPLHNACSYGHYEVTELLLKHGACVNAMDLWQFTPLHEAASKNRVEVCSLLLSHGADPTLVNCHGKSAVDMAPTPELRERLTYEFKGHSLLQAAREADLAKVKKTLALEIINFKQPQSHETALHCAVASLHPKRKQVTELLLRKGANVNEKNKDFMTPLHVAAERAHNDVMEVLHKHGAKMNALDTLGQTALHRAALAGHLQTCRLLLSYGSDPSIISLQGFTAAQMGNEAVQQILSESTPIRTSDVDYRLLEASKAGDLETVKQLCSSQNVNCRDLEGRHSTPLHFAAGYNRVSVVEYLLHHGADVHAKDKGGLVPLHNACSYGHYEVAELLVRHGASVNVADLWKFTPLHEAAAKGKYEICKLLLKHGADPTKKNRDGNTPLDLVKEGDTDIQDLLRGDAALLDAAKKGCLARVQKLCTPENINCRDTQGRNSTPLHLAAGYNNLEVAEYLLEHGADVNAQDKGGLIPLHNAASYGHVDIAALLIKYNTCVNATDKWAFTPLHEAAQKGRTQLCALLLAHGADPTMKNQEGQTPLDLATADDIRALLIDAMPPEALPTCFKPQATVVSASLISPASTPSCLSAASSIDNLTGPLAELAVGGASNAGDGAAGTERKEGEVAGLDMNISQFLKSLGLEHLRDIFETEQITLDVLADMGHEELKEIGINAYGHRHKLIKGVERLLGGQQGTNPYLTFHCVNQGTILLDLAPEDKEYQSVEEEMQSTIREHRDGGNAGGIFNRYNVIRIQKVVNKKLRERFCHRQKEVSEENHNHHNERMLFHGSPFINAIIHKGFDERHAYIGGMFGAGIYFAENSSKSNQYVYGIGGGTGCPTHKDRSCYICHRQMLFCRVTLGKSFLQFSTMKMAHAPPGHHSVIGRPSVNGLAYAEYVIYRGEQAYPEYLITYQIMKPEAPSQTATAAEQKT
Assay: not given
Conditions: not given
The molecule `Cc1cccc2c(=O)[nH]c(N3CCC4(CC3)CN(CCO)c3cc(F)cc(F)c34)nc12` showed an IC50 of 5.5 nM.
In turn, `COCCN1C(=O)C2(CCN(c3nc4c(c(=O)[nH]3)CCCN4C)CC2)c2c(F)cc(F)cc21` returned an IC50 of 10.3 nM.
As for `CN1CCCc2c1nc(N1CCC3(CC1)C(=O)N(C)c1cc(N4CCOCC4)cc(F)c13)[nH]c2=O`, half-maximal inhibition (IC50) was put at 14.9 nM.

The target of another data set is T3, Tankyrase 1/2 (Homo sapiens, UniProt Q9H2K2+O95271).
T3 sequence (Q9H2K2 whole entry): T1 sequence (Q9H2K2 whole entry)
T3 sequence (O95271 whole entry): T2 sequence (O95271 whole entry)
Assay: not given
Conditions: hek293.
With `Cc1cccc2c(=O)[nH]c(N3CCC4(CC3)CN(CCO)c3cc(F)cc(F)c34)nc12`, the 50% inhibitory concentration (IC50) was determined as 3.1 nM.
Still for that read-out and setting: under `COCCN1C(=O)C2(CCN(c3nc4c(c(=O)[nH]3)CCCN4C)CC2)c2c(F)cc(F)cc21` stands 0.3 nM; under `CN1CCCc2c1nc(N1CCC3(CC1)C(=O)N(C)c1cc(N4CCOCC4)cc(F)c13)[nH]c2=O`, 0.1 nM.

Another data set addresses T3, Tankyrase 1/2.
Assay: not given
Conditions: not given
As for `Cc1cccc2c(=O)[nH]c(N3CCC4(CC3)CN(CCO)c3cc(F)cc(F)c34)nc12`, the IC50 was determined as 13.7 nM.
`COCCN1C(=O)C2(CCN(c3nc4c(c(=O)[nH]3)CCCN4C)CC2)c2c(F)cc(F)cc21` registered a 50% inhibitory concentration (IC50) of 3 nM.
`CN1CCCc2c1nc(N1CCC3(CC1)C(=O)N(C)c1cc(N4CCOCC4)cc(F)c13)[nH]c2=O` displayed an IC50 of 2 nM.

Tested on in a further data set: not listed separately
In words: physchem. The conditions noted are these: phosphate buffered saline, pH 7.4.
`COCCN1C(=O)C2(CCN(c3nc4c(c(=O)[nH]3)CCCN4C)CC2)c2c(F)cc(F)cc21` came in with a solubility at 1 h, 200 µM of 6.3 µg/mL (≈ 13.7 µM).
As for `CN1CCCc2c1nc(N1CCC3(CC1)C(=O)N(C)c1cc(N4CCOCC4)cc(F)c13)[nH]c2=O`, the solubility at 1 h, 200 µM amounted to 72.2 µg/mL (≈ 150 µM).

The values are drawn from ChEMBL document CHEMBL4342498, “Design and Discovery of an Orally Efficacious Spiroindolinone-Based Tankyrase Inhibitor for the Treatment of Colon Cancer” (J Med Chem, 2020).
